Measured values from patent US9932349B2 (priority 2000, dated 2018).
Where two headings read alike, the source gives them in different places.

Experiments:
[1] = target: T1, human δ opioid receptor (Homo sapiens, UniProt P41143); experiment: binding to cloned human receptor in CHO cell membranes, [3H]Naltrindole
T1 construct: expressed in transfected cells; host or cells: Chinese hamster ovary (CHO) cells
Experimental: The affinities of the compounds of the invention were determined in guinea pig brain cells by the method described in Wentland et al. Biorgan. Med. Chem. Lett. 9. […] CHO cell membranes, expressing the human μ, δ, or κ opioid receptor, were incubated with 12 different concentrations of the compounds in the presence of receptor-specific radioligands at 25° C., in a final volume of 1 ml of 50 mM Tris-HCl, pH 7.5. Nonspecific binding was determined using 1 μM naloxone. Data are the mean value ±S.E.M. from three experiments, performed in triplicate.

[2] = target: T2, human μ opioid receptor (Homo sapiens, UniProt P35372); experiment: biochemical; type: binding
T2 construct: expressed in transfected cells; host or cells: Chinese hamster ovary (CHO) cells
T2 sequence (P35372 whole entry): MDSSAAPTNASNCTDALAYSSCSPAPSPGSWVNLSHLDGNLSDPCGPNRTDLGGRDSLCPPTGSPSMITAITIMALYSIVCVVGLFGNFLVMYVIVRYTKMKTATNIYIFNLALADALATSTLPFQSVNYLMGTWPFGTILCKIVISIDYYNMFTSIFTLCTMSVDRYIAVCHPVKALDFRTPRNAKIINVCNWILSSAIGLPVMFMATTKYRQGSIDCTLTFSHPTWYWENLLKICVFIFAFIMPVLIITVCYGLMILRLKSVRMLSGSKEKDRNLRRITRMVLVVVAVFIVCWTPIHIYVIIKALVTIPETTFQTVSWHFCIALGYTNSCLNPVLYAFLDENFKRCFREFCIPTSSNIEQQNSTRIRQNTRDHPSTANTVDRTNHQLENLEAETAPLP

[3] = target: T3, human κ opioid receptor (Homo sapiens, UniProt P41145); experiment: biochemical; type: binding
T3 construct: expressed in transfected cells; host or cells: Chinese hamster ovary (CHO) cells
T3 sequence (P41145 whole entry): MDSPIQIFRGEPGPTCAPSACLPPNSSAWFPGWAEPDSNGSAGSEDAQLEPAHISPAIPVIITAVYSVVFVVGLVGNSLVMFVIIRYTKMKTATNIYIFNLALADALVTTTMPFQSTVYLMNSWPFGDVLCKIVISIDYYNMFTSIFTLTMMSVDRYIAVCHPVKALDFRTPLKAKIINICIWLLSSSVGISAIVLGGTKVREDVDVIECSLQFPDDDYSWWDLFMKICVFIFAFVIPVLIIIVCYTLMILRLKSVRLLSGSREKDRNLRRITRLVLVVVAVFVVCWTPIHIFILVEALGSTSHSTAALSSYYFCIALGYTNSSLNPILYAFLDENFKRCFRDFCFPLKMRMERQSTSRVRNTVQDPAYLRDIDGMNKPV

[4] = target: T4, κ opioid receptor (Cavia porcellus, UniProt P41144); experiment: biochemical; type: binding, guinea pig
T4 construct: determined in guinea pig brain cells; from tissue; host or cells: guinea pig brain
T4 sequence (P41144 whole entry): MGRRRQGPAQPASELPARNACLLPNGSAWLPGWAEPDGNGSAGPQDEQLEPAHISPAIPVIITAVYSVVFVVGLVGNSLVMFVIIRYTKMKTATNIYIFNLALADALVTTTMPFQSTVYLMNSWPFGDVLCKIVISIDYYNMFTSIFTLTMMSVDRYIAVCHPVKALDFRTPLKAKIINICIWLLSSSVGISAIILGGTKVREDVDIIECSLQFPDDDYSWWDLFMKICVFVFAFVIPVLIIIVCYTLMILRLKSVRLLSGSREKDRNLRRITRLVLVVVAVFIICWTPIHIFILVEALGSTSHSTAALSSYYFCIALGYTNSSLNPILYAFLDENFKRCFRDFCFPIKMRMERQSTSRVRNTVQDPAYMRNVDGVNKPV

[5] = target: T5, δ opioid receptor (Cavia porcellus, UniProt A0A286XTF2); experiment: biochemical; type: binding, guinea pig
T5 construct: determined in guinea pig brain cells; from tissue; host or cells: guinea pig brain
T5 sequence (A0A286XTF2 1-366): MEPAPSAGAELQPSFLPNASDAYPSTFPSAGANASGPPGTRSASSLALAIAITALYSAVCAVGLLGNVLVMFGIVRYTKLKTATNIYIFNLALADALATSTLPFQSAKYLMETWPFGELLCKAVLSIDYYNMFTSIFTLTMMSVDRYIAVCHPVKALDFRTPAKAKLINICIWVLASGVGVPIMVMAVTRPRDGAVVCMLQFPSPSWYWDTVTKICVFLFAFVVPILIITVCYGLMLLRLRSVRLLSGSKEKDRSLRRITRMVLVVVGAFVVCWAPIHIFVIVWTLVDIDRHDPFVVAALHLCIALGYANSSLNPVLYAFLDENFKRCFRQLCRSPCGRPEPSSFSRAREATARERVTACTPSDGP

T1 sequence (P41143 whole entry): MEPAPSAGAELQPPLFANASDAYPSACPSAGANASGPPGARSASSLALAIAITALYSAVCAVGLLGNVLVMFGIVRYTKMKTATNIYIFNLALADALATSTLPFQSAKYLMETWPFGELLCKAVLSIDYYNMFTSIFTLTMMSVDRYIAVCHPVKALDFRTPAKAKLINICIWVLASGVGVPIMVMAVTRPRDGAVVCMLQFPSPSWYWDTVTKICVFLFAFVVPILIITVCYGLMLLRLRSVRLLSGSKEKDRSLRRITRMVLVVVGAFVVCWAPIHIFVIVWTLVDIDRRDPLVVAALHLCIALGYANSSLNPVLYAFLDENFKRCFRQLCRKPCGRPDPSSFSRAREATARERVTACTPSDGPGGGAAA

SMILES	Ki ([4]; Ki [3H] U69,593 (κ))	Ki ([5]; Ki [3H] Naltrindole (δ))	other results
CC1C2Cc3ccc(NC(N)=S)cc3C1(C)CCN2CC1CC1 (racemic) [Example 37]			Ki ([1]; read-out: Ki [3H] Naltrindole (δ), Table 1, footnote a: chinese hamster ovary rather than guinea pig brain): 440 ± 72 nM; Ki ([2]; read-out: Ki [3H] DAMGO (μ)): 10 ± 1.7 nM; Ki ([3]; read-out: Ki [3H] U69,593 (κ)): 4 ± 0.54 nM
CC1C2Cc3ccc(O)cc3C1(C)CCN2CC1CCCO1 (single isomer, unassigned) [Example 25, reference compound]			Ki ([4]; [3H] U69,593 (κ)): 0.09 ± 0.01 nM; Ki ([5]; [3H] Naltrindole (δ)): 3.6 ± 0.4 nM
CC1C2Cc3ccc(C4=NCCN4)cc3C1(C)CCN2CC1CC1 (stereo not drawn) [Example 13]	11 ± 0.69 nM	55 ± 5.1 nM	
CC1C2Cc3ccc(CN)cc3C1(C)CCN2CC1CC1 (mixture of isomers) [Example 15, (±)-[3-(Cyclopropylmethyl)-1,2,3,4,5,6,-hexahydro-cis-6,11-dimethyl-2,6-methano-3-benzazocin-8-yl]-methylamine]	17 ± 2.9 nM	390 ± 47 nM	
CC1C2Cc3ccc(C(=O)NN)cc3C1(C)CCN2CC1CC1 (stereo not drawn) [Example 7]	19 ± 1.4 nM		
CC1C2Cc3ccc(C(=O)NCCN(C)C)cc3C1(C)CCN2CC1CC1 (stereo not drawn) [Example 11]	44 ± 11 nM	350 ± 51 nM	
N#Cc1ccc2c(c1O)[C@]13CCN(CC4CCC4)[C@H](C2)[C@]1(O)CCC(=O)C3 [Example 43]			Ki [1]: 82 ± 24 nM; Ki [2]: 0.35 ± 0.092 nM; Ki [3]: 2.6 ± 0.21 nM
CC1C2Cc3ccc(C(N)=O)cc3C1(C)CCN2CC1CCCO1 (single isomer, unassigned) [Example 28]			Ki ([4]; [3H] U69,593 (κ)): 2.8 ± 0.24 nM; Ki ([5]; [3H] Naltrindole (δ)): 34 ± 0.1 nM
CC1C2Cc3ccc(C(=O)NCc4ccccc4)cc3C1(C)CCN2CC1CC1 (stereo not drawn) [Example 9]	78 ± 7.6 nM	140 ± 18 nM	
CCC12CCN(CC3CC3)C(C(=O)c3ccc(C(N)=O)cc31)C2C (stereo not drawn) [Example 24]			Ki ([4]; read-out: [3H] U69,593 (κ)): 0.7 ± 0.08 nM; Ki ([5]; read-out: [3H] Naltrindole (δ)): 9.8 ± 0.5 nM
C[C@H]1[C@H]2Cc3ccc(C(=O)O)cc3[C@]1(C)CCN2CC1CC1 (racemic) [Example 2]	31 ± 0.87 nM	320 ± 14 nM	
CC1C2C(=O)c3ccc(C#N)cc3C1(C)CCN2CC1CC1 (stereo not drawn) [Example 22]			Ki ([4]; [3H] U69,593 (κ)): 59 ± 0.77 nM; Ki ([5]; [3H] Naltrindole (δ)): 3400 ± 410 nM
C[C@H]1[C@H]2Cc3ccc(NS(C)(=O)=O)cc3[C@]1(C)CCN2CC1CC1 (racemic) [Example 21]	21 ± 1.5 nM	780 ± 170 nM	
CC1C2Cc3ccc(NC=O)cc3C1(C)CCN2CC1CC1 (single isomer, unassigned) [Example 19a]	0.49 ± 0.012 nM	9.8 ± 0.28 nM	
CC1C2Cc3ccc(C=NO)cc3C1(C)CCN2CC1CC1 (stereo not drawn) [Example 39]			Ki [1]: 140 ± 15 nM; Ki [2]: 18 ± 1.8 nM; Ki [3]: 0.73 ± 0.03 nM
CC1C2Cc3ccc(C(=NO)c4ccccc4)cc3C1(C)CCN2CC1CC1 (stereo not drawn) [Example 18]	7.2 ± 0.4 nM	180 ± 15 nM	
CNC(=O)c1ccc2c(c1)C1(C)CCN(CC3CC3)C(C2)C1C (stereo not drawn) [Example 8]	2.6 ± 0.19 nM	63 ± 4.1 nM	
C[C@H]1[C@H]2Cc3ccc(C(=O)NO)cc3[C@]1(C)CCN2CC1CC1 (racemic) [Example 6]	6.9 ± 0.61 nM	210 ± 40 nM	
CC1C2Cc3ccc(NC=O)cc3C1(C)CCN2CC1CC1 (single isomer, unassigned) [Example 19b]	900 ± 8.7 nM	> 10000 nM	
CC1C2Cc3ccc(C(N)=O)cc3C1(C)CCN2CC1CC1 (single isomer, unassigned) [Example 4b]		570 ± 50 nM	
CC1C2Cc3ccc(C(=O)c4ccccc4)cc3C1(C)CCN2CC1CC1 (stereo not drawn) [Example 17]	19 ± 2.6 nM	490 ± 43 nM	
C[C@H]1[C@H]2C(=O)c3ccc(C(N)=O)cc3[C@]1(C)CCN2CC1CC1 (relative stereo) [Example 23]			Ki ([4]; [3H] U69,593 (κ)): 1.8 ± 0.1 nM; Ki ([5]; [3H] Naltrindole (δ)): 20 ± 2.3 nM
CC1C2Cc3ccc(CC#N)cc3C1(C)CCN2CC1CC1 (stereo not drawn) [Example 38]			Ki [1]: 2000 ± 685 nM; Ki [2]: 3.3 ± 1.5 nM; Ki [3]: 2.9 ± 0.36 nM
